Test results reported in article PMC6154745 (Oncotarget, 2018).
Marks after values point to notes of the source that are not given here.

Key:
blood serum miRNAs = test: Blood serum miRNAs (microarray), Study 1; type: in vivo, Swiss H mice
pulmonary miRNAs = test: Pulmonary miRNA expression (microarray), Study 1
Method: Ten mice per group (5 males and 5 females) were used. […] Twenty mice per group (10 males and 10 females) were used. […] Each group was composed of 10 female mice.
RNA was extracted from mouse organs (miRNeasy, Qiagen, Hilden, Germany) and body fluids (Exiqon's miRCURY™ RNA Isolation Kit – Biofluids (Exiqon, Vedbaek, Denmark) according to the manufacturers’ instructions. The quality of the RNA extracted was evaluated by spectrophotometric analyses using a fiber optic spectrophotometer (Nanodrop ND-1000).
For evaluating the expression of pulmonary miRNAs we used the 7th generation miRCURY LNA™ microRNA Array (Exiqon), which contains 3,100 capture probes covering human, mouse and rat miRNAs. In particular, this array covers 1,135 mouse miRNAs, i.e. the 88.6% of the 1,281 mouse miRNAs listed in miRBase 19. Microarray analyses were carried out as previously described [22].
Treatment-related differences in body weights, in the frequency of MN NCE, and in the levels of pulmonary DNA adducts and 8-oxo-dGuo, all of them expressed as means ± SE within each group of mice, were evaluated for statistical significance by ANOVA followed by Student's t test for unpaired data. miRNA microarray data, after local background subtraction, log transformation, and normalization were analyzed by GeneSpring software (Agilent, Santa Clara, CA), and expression data were median centered by using the GeneSpring normalization option. The statistical significance of the differences between experimental groups was evaluated by means of the GeneSpring ANOVA applied by using Bonferroni multiple testing correction. […] The overall variability of microarray data, as related to treatments, was evaluated by scatter-plot analysis (SPA), hierarchical cluster analysis (HCA), and principal component analysis (PCA).

liver miRNAs = test: miRNA expression (microarray), Study 3, liver; type: in vivo, ICR (CD-1) mice
Method: (§1) Each group was composed of 10 female mice.
(§2) The urine was collected for 8 h and pooled from the mice belonging to each experimental group in Study 3 by using metabolic cages during the day preceding euthanasia of mice. Immediately after sacrifice, a bronchoalveolar lavage (BAL) was performed and used for preparing BALF, and the blood was collected and used for preparing serum. BALF and blood serum were pooled within each experimental group. The organs reported in the general design of the studies were collected, as previously described. Immediately after collection, each organ or fluid was immersed in RNAlater and kept at -80°C for miRNA analysis. Portions of the organs used in Study 1 and Study 2 were stored at -80°C for evaluating DNA damage.
(§3) For evaluating the expression of pulmonary miRNAs we used the 7th generation miRCURY LNA™ microRNA Array (Exiqon), which contains 3,100 capture probes covering human, mouse and rat miRNAs. In particular, this array covers 1,135 mouse miRNAs, i.e. the 88.6% of the 1,281 mouse miRNAs listed in miRBase 19. Microarray analyses were carried out as previously described.
(§4) Treatment-related differences in body weights, in the frequency of MN NCE, and in the levels of pulmonary DNA adducts and 8-oxo-dGuo, all of them expressed as means ± SE within each group of mice, were evaluated for statistical significance by ANOVA followed by Student's t test for unpaired data. miRNA microarray data, after local background subtraction, log transformation, and normalization were analyzed by GeneSpring software (Agilent, Santa Clara, CA), and expression data were median centered by using the GeneSpring normalization option.

[1] = mice, 1,000 mg/kg diet; cited from earlier work
liver DNA = test: Bulky DNA adducts by 32P postlabeling, Study 2, liver; type: in vivo, ICR (CD-1) mice; conditions: for Bulky DNA adducts: Liver; for increase of DNA adduct levels over sham-exposed mice: liver
Method: as §1
(§5) DNA was extracted from tissue specimens (50 mg) collected individually from the lungs of 40 Swiss H mice used in Study 1 and from lungs, heart and liver of 80 ICR (CD-1) mice used in Study 2, as previously described. Bulky DNA adducts, after butanol enrichment, and 8-hydroxy-2’-deoxyguanosine (8-oxo-dGuo) were measured by ^32P postlabeling as previously described.

urine miRNAs = test: miRNA expression (microarray), Study 3, urine; type: in vivo, ICR (CD-1) mice
Method: as §1, §2, §3, §4

heart DNA = test: Bulky DNA adducts by 32P postlabeling, Study 2, heart; type: in vivo, ICR (CD-1) mice; conditions: for Bulky DNA adducts: Heart; for decrease of DNA adduct levels vs MCS-exposed mice without celecoxib / increase of DNA adduct levels over sham-exposed mice: heart
Method: as §1, §5

BALF miRNAs = test: miRNA expression (microarray), Study 3, BALF; type: in vivo, ICR (CD-1) mice
Method: as §1, §2, §3, §4

Body weight, Study 1 = type: in vivo, Swiss H mice; conditions: after 10 weeks
Source text: Strain H neonatal mice, used in Study 1, were born at the Animal Laboratory of the National Center of Oncology (Sofia, Bulgaria). The mice were housed in Makrolon™ cages on sawdust bedding and maintained on standard rodent chow (Kostinbrod, Bulgaria) and allowed drinking water ad libitum. Swiss ICR (CD-1) mice, either neonatal (Study 2) or two- month old (Study 3), were purchased from Harlan Laboratories (San Pietro al Natisone, Udine, Italy). The mice were housed in Makrolon™ cages on sawdust bedding and maintained on standard rodent chow (Teklad 9607, Harlan Laboratories) and tap water ad libitum. The animal room temperature was 23 ± 2°C, with a relative humidity of 55% and a 12 h day-night cycle. Housing and treatments of mice were in accordance with NIH, European (2010/63 UE Directive), and institutional guidelines. The issuance of the NIH Office of Laboratory Animal Welfare (OLAW) with the University of Genoa bears the identification number A5899-01 and is effective until February 28, 2021. The Institutional Animal Care and Use Committee (IACUC) protocol was approved by the Fox Chase Cancer Center Committee on April 13, 2015.
In Study 1 and Study 2, feeding of the drug-containing diet started after weanling (about 4 weeks) and continued until the 10th week of life.
as §4

kidney miRNAs = test: miRNA expression (microarray), Study 3, kidney; type: in vivo, ICR (CD-1) mice
Method: as §1, §2, §3, §4

lung DNA = test: Bulky DNA adducts in lung by 32P postlabeling, Study 1; type: in vivo, Swiss H mice
Method: as §1, §5

brain miRNAs = test: miRNA expression (microarray), Study 3, brain; type: in vivo, ICR (CD-1) mice; conditions: high dose
Method: as §1
as §2, with “damage. […]” for “damage.”
as §4

[2] = MCS-exposed mice given celecoxib
[3] = celecoxib in MCS-exposed mice vs MCS
[4] = urine, low dose (20 mg/kg diet) vs sham

## Cc1ccc(-c2cc(C(F)(F)F)nn2-c2ccc(S(N)(=O)=O)cc2)cc1 [Celecoxib, 4-[5-(4-methylphenyl)-3-(trifluoromethyl)-1H-pyrazol-1-yl] benzene-1-sulfonamide]
Blood serum miRNAs; [2]
  number of blood miRNAs on which the effect of MCS was counteracted: 7
Blood serum miRNAs; vs sham-exposed mice, 2-fold variation and P < 0.05
  number of miRNAs significantly modulated in blood serum: 18
Pulmonary miRNAs; [3]
  number of pulmonary miRNAs significantly dysregulated: 11
  share of pulmonary miRNAs significantly dysregulated: 1.0%
Pulmonary miRNAs; vs sham-exposed mice
  number of pulmonary miRNAs downregulated: 2
  number of pulmonary miRNAs upregulated: 19
Liver miRNAs; MCS-exposed mice
  upregulated/downregulated miRNAs: 2/1
Liver miRNAs; MCS-free mice
  miR-30c-2-3p downregulation: 9 fold
  miR-30e downregulation: 10 fold
  miR-802-3p downregulation: 7 fold
  upregulated/downregulated miRNAs: 0/15
Liver miRNAs; high dose
  number of miRNAs modulated by celecoxib: 18
[1]
  plasma concentration: 1.6 µg/mL
Liver DNA; F
  Bulky DNA adducts: 1.8 ± 0.08^c adducts/10^8 nucleotides
Liver DNA; M
  Bulky DNA adducts: 1.6 ± 0.12^a adducts/10^8 nucleotides
Liver DNA; M + F
  Bulky DNA adducts: 1.7 ± 0.08^a adducts/10^8 nucleotides
Liver DNA; MCS-exposed mice treated with celecoxib, females
  increase of DNA adduct levels over sham-exposed mice: 1.5 fold
Liver DNA; MCS-exposed mice treated with celecoxib, males
  increase of DNA adduct levels over sham-exposed mice: 1.3 fold
Liver DNA; MCS-exposed mice treated with celecoxib, mixed genders
  increase of DNA adduct levels over sham-exposed mice: 1.4 fold
Liver DNA; combined genders
  increase of DNA adduct levels over sham-exposed mice: 1.4 fold
Liver DNA; females
  increase of DNA adduct levels over sham-exposed mice: 1.5 fold
Liver DNA; males
  increase of DNA adduct levels over sham-exposed mice: 1.3 fold
Urine miRNAs; urine, high dose
  number of miRNAs modulated: 3
Urine miRNAs; urine, low dose
  number of miRNAs modulated: 2
Urine miRNAs; [4]
  miR-290 downregulation: 2.4 fold
  miR-1945b downregulation: 2.4 fold
Urine miRNAs; urines, MCS-free mice
  upregulated/downregulated miRNAs: 0/3
Urine miRNAs; urines, high dose
  number of miRNAs modulated by celecoxib: 3
Heart DNA; F
  Bulky DNA adducts: 3.6 ± 0.37^c adducts/10^8 nucleotides
Heart DNA; M
  Bulky DNA adducts: 3.3 ± 0.18^c adducts/10^8 nucleotides
Heart DNA; M + F
  Bulky DNA adducts: 3.4 ± 0.17^c adducts/10^8 nucleotides
Heart DNA; combined genders
  decrease of DNA adduct levels vs MCS-exposed mice without celecoxib: 1.3 fold
  increase of DNA adduct levels over sham-exposed mice: 2.2 fold
Heart DNA; females
  decrease of DNA adduct levels vs MCS-exposed mice without celecoxib: 1.5 fold
  increase of DNA adduct levels over sham-exposed mice: 2.4 fold
Heart DNA; males (not statistically significant)
  decrease of DNA adduct levels vs MCS-exposed mice without celecoxib: 1.1 fold
Heart DNA; males
  increase of DNA adduct levels over sham-exposed mice: 2.1 fold
BALF miRNAs; MCS-exposed mice
  miR-1964-5p downregulation: 3 fold
  upregulated/downregulated miRNAs: 0/2
BALF miRNAs; MCS-free mice
  miR-1964-5p downregulation: 6 fold
  upregulated/downregulated miRNAs: 2/3
BALF miRNAs; high dose
  number of miRNAs modulated by celecoxib: 7
Body weight, Study 1; females, MCS-exposed mice given celecoxib
  body weight: 26.7 ± 0.56 g
Body weight, Study 1; females
  body weight: 27.8 ± 0.80 g
Body weight, Study 1; males, MCS-exposed mice given celecoxib
  body weight: 34.6 ± 1.55 g
Body weight, Study 1; males
  body weight: 37.2 ± 0.97 g
Kidney miRNAs; MCS-exposed mice
  upregulated/downregulated miRNAs: 0/0
Kidney miRNAs; MCS-free mice
  miR-30c-2-3p downregulation: 14 fold
  miR-30c-2-5p downregulation: 13 fold
  miR-30e downregulation: 8 fold
  miR-185-5p downregulation: 25 fold
  miR-301 downregulation: 7 fold
  miR-802-3p downregulation: 6 fold
  miR-1964-5p downregulation: 7 fold
  upregulated/downregulated miRNAs: 7/20
Kidney miRNAs; high dose
  number of miRNAs modulated by celecoxib: 27
Lung DNA; [2]
  increase of pulmonary DNA adducts vs sham-exposed mice: 8.5 fold
Lung DNA; combined genders
  increase of pulmonary DNA adducts vs sham-exposed mice: 3.3 fold
Lung DNA; lung, F
  Bulky DNA adducts: 4.3 ± 0.34^b adducts/10^8 nucleotides
Lung DNA; lung, M
  Bulky DNA adducts: 4.3 ± 0.40^b adducts/10^8 nucleotides
Lung DNA; lung, M + F
  Bulky DNA adducts: 4.3 ± 0.25^b adducts/10^8 nucleotides
Lung DNA; lung, MCS-free mice
  autoradiographic spots absent in sham-exposed mice: 3
Brain miRNAs
  number of miRNAs modulated by celecoxib: 0
